Patent publication US7491794B2, “Macrocyclic compounds as inhibitors of viral replication” (Intermune, Inc., priority 2003, dated 2009)
Like-named read-outs stand apart in the source and are kept apart here.

Legend:
[1] = biological target: T1, NS3-NS4A protease (Hepatitis C virus genotype 1a, UniProt P27958); assay: NS3-NS4A protease assay (NS3 inhibition assay, RETS1 substrate), Section B; format: biochemical; details: read-out: NS3-NS4A IC50
T1 construct: Recombinant E. coli or Baculovirus full-length NS3 was diluted to 3.33 μM with assay buffer; made in house; host or cells: E. coli or baculovirus (BV) system
T1 sequence (P27958 1027-1657): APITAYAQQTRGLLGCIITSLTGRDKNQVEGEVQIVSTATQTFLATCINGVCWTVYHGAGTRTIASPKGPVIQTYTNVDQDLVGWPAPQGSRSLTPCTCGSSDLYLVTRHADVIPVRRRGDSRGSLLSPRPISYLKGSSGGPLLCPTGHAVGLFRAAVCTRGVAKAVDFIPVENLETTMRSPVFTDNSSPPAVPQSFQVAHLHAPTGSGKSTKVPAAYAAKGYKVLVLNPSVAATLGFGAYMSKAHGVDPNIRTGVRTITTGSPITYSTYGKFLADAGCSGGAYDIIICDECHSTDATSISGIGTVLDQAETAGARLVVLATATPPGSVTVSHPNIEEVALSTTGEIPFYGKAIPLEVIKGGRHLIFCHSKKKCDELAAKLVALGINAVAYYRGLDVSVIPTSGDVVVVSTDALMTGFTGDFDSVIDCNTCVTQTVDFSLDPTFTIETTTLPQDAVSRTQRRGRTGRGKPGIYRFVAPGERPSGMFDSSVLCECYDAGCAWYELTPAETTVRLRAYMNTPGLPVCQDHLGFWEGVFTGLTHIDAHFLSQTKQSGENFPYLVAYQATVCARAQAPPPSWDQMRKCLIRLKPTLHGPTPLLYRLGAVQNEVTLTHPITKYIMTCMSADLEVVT
Procedure, shortened: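 Full-length NS3 (E. coli or baculovirus) precomplexed with excess NS4A-2 peptide, run at 2 nM (E. coli) or 3 nM (BV) NS3; compounds pre-incubated 10 min at room temperature before RETS1 substrate. Fluorescence (ex 335/em 495 nm) read kinetically 30 min; IC50 from four-parameter fit, converted to Ki via Ki=IC50/(1+[S]/Km).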

[2] = test system: HCV sub-genomic replicon, GS4.3; assay: Quantitation by ELISA of NPTII in the HCV sub-genomic replicon, GS4.3, Section B; format: cell-based; details: Hepatitis C virus, read-out: Replicon EC50
Procedure, shortened: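 GS4.3 cells (HuH-7 carrying HCV 1377/NS3-3′ replicon) were treated 72 h at 37 °C with inhibitors in 3-fold dilutions, 1% DMSO, no G418. Lysate NPTII was measured by ELISA (TMB, 450 nm). Signal as % of DMSO control; EC50 from 4-parameter fit.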

Structure (SMILES)	IC50 [1] [nM]	EC50 ([2]; GS4.3 cells, 72 h incubation) [nM]	EC50 ([2]; 72 h) [nM]
C[C@H]1CN(C(=O)O[C@@H]2C[C@H]3C(=O)N[C@]4(C(=O)O)C[C@H]4C=CCCCCC[C@H](NC(=O)OC(C)(C)C)C(=O)N3C2)Cc2ccccc21 [AR00320122, (1S,4R,6S,14S,18R)-14-tert-Butoxycarbonylamino-18-(4R-methyl-3,4-dihydro-1H-isoquinoline-2-carbonyloxy)-2,15-dioxo-3,16-diaza-tricyclo[14.3.0.0^4,6]nonadec-7-ene-4-carboxylic acid]	< 1000	< 10000	–
C[C@@H]1CN(C(=O)O[C@@H]2C[C@H]3C(=O)N[C@]4(C(=O)O)C[C@H]4/C=C\CCCCC[C@H](NC(=O)OC(C)(C)C)C(=O)N3C2)Cc2ccccc21 [AR00320123, (1S,4R,6S,14S,18R)-14-tert-Butoxycarbonylamino-18-(4S-methyl-3,4-dihydro-1H-isoquinoline-2-carbonyloxy)-2,15-dioxo-3,16-diaza-tricyclo[14.3.0.0^4,6]nonadec-7-ene-4-carboxylic acid]	< 1000	< 10000	–
CC(C)(C)NC(=O)N[C@H]1CCCCC/C=C\[C@@H]2C[C@@]2(C(=O)NS(=O)(=O)C2CC2)NC(=O)[C@@H]2C[C@@H](OC(=O)N3Cc4ccccc4C3)CN2C1=O [AR00320220, (1S,4R,6S,14S,18R)-1,3-Dihydro-isoindole-2-carboxylic acid 14-(3-tert-butyl-ureido)-4-cyclopropanesulfonylaminocarbonyl-2,15-dioxo-3,16-diaza-tricyclo[14.3.0.0^4,6]nonadec-7-en-18-yl ester]	< 100	< 100	–
O=C(NC1CCOC1)N[C@H]1CCCCC/C=C\[C@@H]2C[C@@]2(C(=O)NS(=O)(=O)C2CC2)NC(=O)[C@@H]2C[C@@H](OC(=O)N3CCc4ccccc4C3)CN2C1=O (stereo partly drawn) [AR00320222, (1S,4R,6S,14S,18R)-3,4-Dihydro-1H-isoquinoline-2-carboxylic acid 4-cyclopropanesulfonylaminocarbonyl-2,15-dioxo-14-[3-(tetrahydro-furan-3-yl)-ureido]-3,16-diaza-tricyclo[14.3.0.0^4,6]nonadec-7-en-18-yl ester]	< 100	< 10000	–
O=C(NC1CCCC1)N[C@H]1CCCCC/C=C\[C@@H]2C[C@@]2(C(=O)NS(=O)(=O)C2CC2)NC(=O)[C@@H]2C[C@@H](OC(=O)N3CCc4ccccc4C3)CN2C1=O [AR00320403, (1S,4R,6S,14S,18R)-3,4-Dihydro-1H-isoquinoline-2-carboxylic acid 14-(3-cyclopentyl-ureido)-4-cyclopropanesulfonylaminocarbonyl-2,15-dioxo-3,16-diaza-tricyclo[14.3.0.0^4,6]nonadec-7-en-18-yl ester]	< 100	< 1000	–
CC(C)(C)NC(=O)N[C@H]1CCCCC/C=C\[C@@H]2C[C@@]2(C(=O)NS(=O)(=O)C2CC2)NC(=O)[C@@H]2C[C@@H](OC(=O)N3Cc4ccc(Cl)cc4C3)CN2C1=O [AR00320446, (1S,4R,6S,14S,18R)-5-Chloro-1,3-dihydro-isoindole-2-carboxylic acid 14-(3-tert-butyl-ureido)-4-cyclopropanesulfonylaminocarbonyl-2,15-dioxo-3,16-diaza-tricyclo[14.3.0.0^4,6]nonadec-7-en-18-yl ester]	< 100	< 100	–
CC(C)(C)NC(=O)N[C@H]1CCCCC/C=C\[C@@H]2C[C@@]2(C(=O)NS(=O)(=O)C2CC2)NC(=O)[C@@H]2C[C@@H](OC(=O)N3Cc4cc(Cl)c(Cl)cc4C3)CN2C1=O [AR00320447, (1S,4R,6S,14S,18R)-5,6-Dichloro-1,3-dihydro-isoindole-2-carboxylic acid 14-(3-tert-butyl-ureido)-4-cyclopropanesulfonylaminocarbonyl-2,15-dioxo-3,16-diaza-tricyclo[14.3.0.0^4,6]nonadec-7-en-18-yl ester]	< 100	< 1000	–
O=C(N[C@H]1CCCCC/C=C\[C@@H]2C[C@@]2(C(=O)O)NC(=O)[C@@H]2C[C@@H](OC(=O)N3Cc4ccc(Cl)cc4C3)CN2C1=O)O[C@@H]1CCOC1 [AR00320448, (1S,4R,6S,14S,18R)-18-(5-Chloro-1,3-dihydro-isoindole-2-carbonyloxy)-2,15-dioxo-14-(tetrahydro-furan-3R-yloxycarbonylamino)-3,16-diaza-tricyclo[14.3.0.0^4,6]nonadec-7-ene-4-carboxylic acid]	< 1000	< 10000	–
CC(C)(C)NC(=O)N[C@H]1CCCCC/C=C\[C@@H]2C[C@@]2(C(=O)O)NC(=O)[C@@H]2C[C@@H](OC(=O)N3Cc4ccc(Cl)cc4C3)CN2C1=O [AR00320449, (1S,4R,6S,14S,18R)-14-(3-tert-Butyl-ureido)-18-(5-chloro-1,3-dihydro-isoindole-2-carbonyloxy)-2,15-dioxo-3,16-diaza-tricyclo[14.3.0.0^4,6]nonadec-7-ene-4-carboxylic acid]	< 100	< 10000	–
CC(C)(C)NC(=O)N[C@H]1CCCCC/C=C\[C@@H]2C[C@@]2(C(=O)O)NC(=O)[C@@H]2C[C@@H](OC(=O)N3Cc4cc(Cl)c(Cl)cc4C3)CN2C1=O [AR00320450, (1S,4R,6S,14S,18R)-14-(3-tert-Butyl-ureido)-18-(5,6-dichloro-1,3-dihydro-isoindole-2-carbonyloxy)-2,15-dioxo-3,16-diaza-tricyclo[14.3.0.0^4,6]nonadec-7-ene-4-carboxylic acid]	< 1000	< 10000	–
O=C(N[C@H]1CCCCC/C=C\[C@@H]2C[C@@]2(C(=O)NS(=O)(=O)C2CC2)NC(=O)C2C[C@@H](OC(=O)N3CCc4ccccc4C3CN3CCCCC3)CN2C1=O)OC1CCCC1 (stereo partly drawn) [AR00320506, (1S,4R,6S,14S,18R)-1-Piperidin-1-ylmethyl-3,4-dihydro-1H-isoquinoline-2-carboxylic acid 14-cyclopentyloxycarbonylamino-4-cyclopropanesulfonylaminocarbonyl-2,15-dioxo-3,16-diaza-tricyclo[14.3.0.0^4,6]nonadec-7-en-18-yl ester]	< 100	< 100	–
CC(C)(C)OC(=O)N[C@H]1CCCCC/C=C\[C@@H]2C[C@@]2(C(=O)NS(=O)(=O)c2ccccc2)NC(=O)[C@@H]2C[C@@H](OC(=O)N3CCc4ccccc4C3)CN2C1=O [AR00320547, (1S,4R,6S,14S,18R)-3,4-Dihydro-1H-isoquinoline-2-carboxylic acid 4-benzenesulfonylaminocarbonyl-14-tert-butoxycarbonylamino-2,15-dioxo-3,16-diaza-tricyclo[14.3.0.0^4,6]nonadec-7-en-18-yl ester]	< 100	< 100	–
COc1ccc(S(=O)(=O)NC(=O)[C@@]23C[C@H]2/C=C\CCCCC[C@H](NC(=O)OC(C)(C)C)C(=O)N2C[C@H](OC(=O)N4CCc5ccccc5C4)C[C@H]2C(=O)N3)cc1 [AR00320548, (1S,4R,6S,14S,18R)-3,4-Dihydro-1H-isoquinoline-2-carboxylic acid 14-tert-butoxycarbonylamino-4-(4-methoxy-benzenesulfonylaminocarbonyl)-2,15-dioxo-3,16-diaza-tricyclo[14.3.0.0^4,6]nonadec-7-en-18-yl ester]	< 100	–	< 100
Cc1ccc(S(=O)(=O)NC(=O)[C@@]23C[C@H]2/C=C\CCCCC[C@H](NC(=O)OC(C)(C)C)C(=O)N2C[C@H](OC(=O)N4CCc5ccccc5C4)C[C@H]2C(=O)N3)cc1 [AR00320549, (1S,4R,6S,14S,18R)-3,4-Dihydro-1H-isoquinoline-2-carboxylic acid 14-tert-butoxycarbonylamino-2,15-dioxo-4-(toluene-4-sulfonylaminocarbonyl)-3,16-diaza-tricyclo[14.3.0.0^4,6]nonadec-7-en-18-yl ester]	< 100	–	< 100
O=C(N[C@H]1CCCCC/C=C\[C@@H]2C[C@@]2(C(=O)NS(=O)(=O)C2CC2)NC(=O)[C@@H]2C[C@@H](OC(=O)N3CCc4ccccc4[C@@H]3CN3CCCCC3)CN2C1=O)OC1CCCC1 [AR00320556, (1S,4R,6S,14S,18R)-1-Piperidin-1R-ylmethyl-3,4-dihydro-1H-isoquinoline-2-carboxylic acid 14-cyclopentyloxycarbonylamino-4-cyclopropanesulfonylaminocarbonyl-2,15-dioxo-3,16-diaza-tricyclo[14.3.0.0^4,6]nonadec-7-en-18-yl ester]	< 100	< 100	–
O=C(N[C@H]1CCCCC/C=C\[C@@H]2C[C@@]2(C(=O)NS(=O)(=O)C2CC2)NC(=O)[C@@H]2C[C@@H](OC(=O)N3CCc4ccccc4[C@H]3CN3CCCCC3)CN2C1=O)OC1CCCC1 [AR00320557, (1S,4R,6S,14S,18R)-1-Piperidin-1S-ylmethyl-3,4-dihydro-1H-isoquinoline-2-carboxylic acid 14-cyclopentyloxycarbonylamino-4-cyclopropanesulfonylaminocarbonyl-2,15-dioxo-3,16-diaza-tricyclo[14.3.0.0^4,6]nonadec-7-en-18-yl ester]	< 100	< 100	–
O=C(NC1CCCC1)N[C@H]1CCCCC/C=C\[C@@H]2C[C@@]2(C(=O)NS(=O)(=O)C2CC2)NC(=O)[C@@H]2C[C@@H](OC(=O)N3Cc4ccc(Cl)cc4C3)CN2C1=O [AR00320574, (1S,4R,6S,14S,18R)-5-Chloro-1,3-dihydro-isoindole-2-carboxylic acid 14-(3-cyclopentyl-ureido)-4-cyclopropanesulfonylaminocarbonyl-2,15-dioxo-3,16-diaza-tricyclo[14.3.0.0^4,6]nonadec-7-en-18-yl ester]	< 100	< 100	–
